From PubChem BioAssay AID1918932 (Molecular Pharmacology Branch, DTP, NCI, 2023)

System: 171881-019-R-J1-PDC complex spheroid viability
Assay: Anticancer human tumor 171881-019-R-J1-PDC patient-derived invasive breast carcinoma cell line growth inhibition
Settings: for IC50: curve of first compound; for viability, T/C: stronger effect = lower value; active means viability on the fitted dose curve at most 10% of control; inactive means the rest
Outline: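 Drug combinations with the LSD1 inhibitor iadademstat tested on tumor cells co-cultured as spheroids with endothelial cells and mesenchymal stem cells. Concentrations descended in half-log increments from clinical Cmax or 10 microM.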

[1] = second compound 0.1 µM, first compound 0.00949 µM
[2] = second compound 0.1 µM, first compound 0.03 µM
[3] = second compound 0.1 µM, first compound 0.0949 µM
[4] = second compound 0.1 µM, first compound 0.3 µM
[5] = second compound 0.1 µM, first compound 0.949 µM
[6] = second compound 0.1 µM, first compound 3 µM
[7] = second compound 0.316 µM, first compound 0.00949 µM
[8] = second compound 0.316 µM, first compound 0.03 µM
[9] = second compound 0.316 µM, first compound 0.0949 µM
[10] = second compound 0.316 µM, first compound 0.3 µM
[11] = second compound 0.316 µM, first compound 0.949 µM
[12] = second compound 0.316 µM, first compound 3 µM
[13] = second compound 1 µM, first compound 0.00949 µM
[14] = second compound 1 µM, first compound 0.03 µM
[15] = second compound 1 µM, first compound 0.0949 µM
[16] = second compound 1 µM, first compound 0.3 µM
[17] = second compound 1 µM, first compound 0.949 µM
[18] = second compound 1 µM, first compound 3 µM
[19] = second compound 3.16 µM, first compound 0.00949 µM
[20] = second compound 3.16 µM, first compound 0.03 µM
[21] = second compound 3.16 µM, first compound 0.0949 µM
[22] = second compound 3.16 µM, first compound 0.3 µM
[23] = second compound 3.16 µM, first compound 0.949 µM
[24] = second compound 3.16 µM, first compound 3 µM
[25] = second compound 10 µM, first compound 0.00949 µM
[26] = second compound 10 µM, first compound 0.03 µM
[27] = second compound 10 µM, first compound 0.0949 µM
[28] = second compound 10 µM, first compound 0.3 µM
[29] = second compound 10 µM, first compound 0.949 µM
[30] = second compound 10 µM, first compound 3 µM
[31] = second compound 0.1 µM, first compound 0.0316 µM
[32] = second compound 0.1 µM, first compound 0.1 µM
[33] = second compound 0.1 µM, first compound 0.316 µM
[34] = second compound 0.1 µM, first compound 1 µM
[35] = second compound 0.316 µM, first compound 0.0316 µM
[36] = second compound 0.316 µM, first compound 0.1 µM
[37] = second compound 0.316 µM, first compound 0.316 µM
[38] = second compound 0.316 µM, first compound 1 µM
[39] = second compound 1 µM, first compound 0.0316 µM
[40] = second compound 1 µM, first compound 0.1 µM
[41] = second compound 1 µM, first compound 0.316 µM
[42] = second compound 1 µM, first compound 1 µM
[43] = second compound 3.16 µM, first compound 0.0316 µM
[44] = second compound 3.16 µM, first compound 0.1 µM
[45] = second compound 3.16 µM, first compound 0.316 µM
[46] = second compound 3.16 µM, first compound 1 µM
[47] = second compound 10 µM, first compound 0.0316 µM
[48] = second compound 10 µM, first compound 0.1 µM
[49] = second compound 10 µM, first compound 0.316 µM
[50] = second compound 10 µM, first compound 1 µM
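Further: spheroids exposed to agents for 7 days after 3 days growth.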

NS(=O)(=O)OCC1CC(n2ccc3c(NC4CCc5ccccc54)ncnc32)CC1O (stereo not given) + NC1CCC(NC2CC2c2ccccc2)CC1
32.7 nM: IC50 (second compound 3.16 µM)
42.7 nM: IC50 (second compound 0.316 µM)
inactive: viability, T/C [1] 109% | viability, T/C [2] 58.5% | viability, T/C [3] 29.3% | viability, T/C [4] 23.5% | viability, T/C [5] 27.9% | viability, T/C [6] 23.8% | viability, T/C [7] 110% | viability, T/C [8] 58.5% | viability, T/C [9] 30.5% | viability, T/C [10] 27.9% | viability, T/C [11] 27.3% | viability, T/C [12] 21.7% | viability, T/C [13] 103% | viability, T/C [14] 50.7% | viability, T/C [15] 23.8% | viability, T/C [16] 23.3% | viability, T/C [17] 27.7% | viability, T/C [18] 20.5% | viability, T/C [19] 109% | viability, T/C [20] 51.2% | viability, T/C [21] 31.7% | viability, T/C [22] 22.8% | viability, T/C [23] 25.1% | viability, T/C [24] 19.2% | viability, T/C [25] 94.6% | viability, T/C [26] 54.8% | viability, T/C [27] 33.1% | viability, T/C [28] 26.1% | viability, T/C [29] 21.1% | viability, T/C [30] 16.9%
41.9 nM: IC50 (second compound 0.1 µM)
39 nM: IC50 (second compound 10 µM)
31.1 nM: IC50 (second compound 1 µM)

CC1COCCN1c1cc(C2(S(C)(=N)=O)CC2)nc(-c2ccnc3[nH]ccc23)n1 (stereo not given) + NC1CCC(NC2CC2c2ccccc2)CC1
2050 nM: IC50 (second compound 10 µM)
1840 nM: IC50 (second compound 0.316 µM)
active: viability, T/C (second compound 0.1 µM, first compound 10 µM) 9.16% | viability, T/C (second compound 0.316 µM, first compound 10 µM) 9.42% | viability, T/C (second compound 1 µM, first compound 10 µM) 9.58% | viability, T/C (second compound 10 µM, first compound 10 µM) 9.99%
1780 nM: IC50 (second compound 1 µM)
inactive: viability, T/C [31] 85.4% | viability, T/C [32] 85% | viability, T/C [33] 96.4% | viability, T/C [34] 73.3% | viability, T/C (second compound 0.1 µM, first compound 3.16 µM) 20.8% | viability, T/C [35] 85.1% | viability, T/C [36] 84.2% | viability, T/C [37] 94.5% | viability, T/C [38] 81.7% | viability, T/C (second compound 0.316 µM, first compound 3.16 µM) 21.7% | viability, T/C [39] 88.8% | viability, T/C [40] 85.4% | viability, T/C [41] 87% | viability, T/C [42] 76.2% | viability, T/C (second compound 1 µM, first compound 3.16 µM) 23.7% | viability, T/C [43] 88.8% | viability, T/C [44] 83% | viability, T/C [45] 86.1% | viability, T/C [46] 78.7% | viability, T/C (second compound 3.16 µM, first compound 3.16 µM) 24.2% | viability, T/C (second compound 3.16 µM, first compound 10 µM) 11.3% | viability, T/C [47] 81.8% | viability, T/C [48] 105% | viability, T/C [49] 84.7% | viability, T/C [50] 84.2% | viability, T/C (second compound 10 µM, first compound 3.16 µM) 29.4%
1680 nM: IC50 (second compound 0.1 µM)
1830 nM: IC50 (second compound 3.16 µM)

CCN(c1cc(-c2ccc(CN3CCOCC3)cc2)cc(C(=O)NCc2c(C)cc(C)[nH]c2=O)c1C)C1CCOCC1 + NC1CCC(NC2CC2c2ccccc2)CC1
2880 nM: IC50 (second compound 10 µM)
2730 nM: IC50 (second compound 3.16 µM)
2670 nM: IC50 (second compound 0.1 µM)
inactive: viability, T/C [1] 76.3% | viability, T/C [2] 85% | viability, T/C [3] 81.3% | viability, T/C [4] 101% | viability, T/C [5] 74.1% | viability, T/C [6] 47.3% | viability, T/C [7] 84.7% | viability, T/C [8] 78.2% | viability, T/C [9] 72.6% | viability, T/C [10] 94.3% | viability, T/C [11] 76.6% | viability, T/C [12] 48.8% | viability, T/C [13] 69.2% | viability, T/C [14] 77.3% | viability, T/C [15] 73.6% | viability, T/C [16] 88.7% | viability, T/C [17] 79.9% | viability, T/C [18] 47% | viability, T/C [19] 80.6% | viability, T/C [20] 81.7% | viability, T/C [21] 84.9% | viability, T/C [22] 81.8% | viability, T/C [23] 70.3% | viability, T/C [24] 48.3% | viability, T/C [25] 80.4% | viability, T/C [26] 75.1% | viability, T/C [27] 76.5% | viability, T/C [28] 90.7% | viability, T/C [29] 77.9% | viability, T/C [30] 49%
2680 nM: IC50 (second compound 1 µM)
2850 nM: IC50 (second compound 0.316 µM)

Nc1ncn(C2CC(O)C(CO)O2)c(=O)n1 (stereo not given) + NC1CC1c1ccc(-c2cccc(O)c2)cc1
inactive: viability, T/C (second compound 0.1 µM, first compound 0.00316 µM) 102% | viability, T/C (second compound 0.1 µM, first compound 0.01 µM) 98.4% | viability, T/C [31] 97.7% | viability, T/C [32] 88.4% | viability, T/C [33] 93.8% | viability, T/C [34] 85.1% | viability, T/C (second compound 0.316 µM, first compound 0.00316 µM) 102% | viability, T/C (second compound 0.316 µM, first compound 0.01 µM) 98.6% | viability, T/C [35] 95.1% | viability, T/C [36] 96.2% | viability, T/C [37] 90.8% | viability, T/C [38] 90.4% | viability, T/C (second compound 1 µM, first compound 0.00316 µM) 106% | viability, T/C (second compound 1 µM, first compound 0.01 µM) 102% | viability, T/C [39] 95% | viability, T/C [40] 96.3% | viability, T/C [41] 92.6% | viability, T/C [42] 85.1% | viability, T/C (second compound 3.16 µM, first compound 0.00316 µM) 102% | viability, T/C (second compound 3.16 µM, first compound 0.01 µM) 96% | viability, T/C [43] 95.8% | viability, T/C [44] 96% | viability, T/C [45] 87% | viability, T/C [46] 82.1% | viability, T/C (second compound 10 µM, first compound 0.00316 µM) 82.4% | viability, T/C (second compound 10 µM, first compound 0.01 µM) 80.6% | viability, T/C [47] 81.4% | viability, T/C [48] 81% | viability, T/C [49] 80% | viability, T/C [50] 74.8%
> 1000 nM: IC50 (second compound 0.1 µM) | IC50 (second compound 0.316 µM) | IC50 (second compound 1 µM) | IC50 (second compound 3.16 µM) | IC50 (second compound 10 µM)
